Results taken from publication PMC6326523, “A high-throughput screen to identify novel small molecule inhibitors of the Werner Syndrome Helicase-Nuclease (WRN)” (PLoS ONE, 2019).
Where two headings read alike, the source gives them in different places.

Columns and labels:
[1] = biological target: T1, full-length WRN helicase (Homo sapiens, UniProt Q14191); test: Radiometric helicase inhibitor assay, full-length WRN unwinding of FORKR DNA substrate; format: biochemical; conditions: FORKR 0.5 nM; for remaining activity at 50 µM: 50 μM compound, read-out: % Control WRN Helicase Activity;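 for all read-outs here: WRN preincubated with compound 15 min at room temperature, then unwinding run 15 min at 37 °C with 2 mM ATP, relative to WRN unwinding without compound (100%)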
T1 construct: Full length recombinant WRN [18], BLM [19], and FANCJ [20] proteins were purified from insect cells; made in house; host or cells: insect cells
Description: Fifteen μL of reaction buffer was added to a microcentrifuge tube followed by the addition of 1 μL of selected compounds (0.5–100 μM final concentration) or DMSO. One μL of WRN (full length), RECQ1, FANCJ, BLM or control was added to each reaction and incubated at room temperature for 15 min. Three μL of substrate (0.5 nM FORKR and 2 mM ATP final concentrations) were added to all reactions which were incubated at 37°C for 15 min. Reactions were stopped with the addition of 20 μL of 2X STOP dye containing EDTA, glycerol, bromphenol blue and xylene cyanol. Samples were electrophoresed for 1.5 hr at 200 V on a 12% non-denaturing PAGE gel in 1X TBE Buffer.
The compounds were tested at a single concentration of 50 μM in the radiometric helicase assay with full-length recombinant WRN protein (1 nM) and the FORKR DNA substrate (0.5 nM) as described in the Materials and Methods section.
For each compound, we performed titrations over a wide range of concentrations with a fixed concentration of full-length WRN protein (1 nM), and quantitated unwinding as a percentage of full-length WRN unwinding of the FORKR DNA substrate (0.5 nM) in the absence of compound (Fig 6A and 6B, S3 Fig). […] In addition to determining an IC50 value for each compound, we also conducted helicase assays to determine the reversibility of inhibition by each compound tested. […] The reaction was diluted 100-fold with the addition of DNA substrate (0.5 nM final concentration) and ATP (2 mM final concentration) and unwinding was measured (Fig 7A–7D, S4 Fig). Inhibition was either classified as reversible, partially reversible, minimally reversible, or irreversible based on the ability of helicase activity to recover after dilution of the compound 100-fold.

[2] = biological target: T2, GST-WRN500-946 helicase domain fragment (Homo sapiens, UniProt Q14191); test: High-throughput fluorometric helicase screen, PubChem AID 651768; format: biochemical; conditions: initial qHTS; 20 nM GST-WRN500-946; 100 nM FORKF; NA = Not Active; read-out: IC50 (μM) Assay ID 651768
T2 construct: made in house; host or cells: insect cells
Description: (§1) The structures of the members of this collection are available in the PubChem portal https://pubchem.ncbi.nlm.nih.gov/. For both the 350,000 small molecule collection and the LOPAC^1280 screens, 3 μL of GST-WRN500-946 or reaction buffer only were dispensed using a solenoid-valve nanoliter dispenser into a black 1536-well plate (Greiner). Twenty three nL of each serially diluted compound (0.08–50 μM for the LOPAC screen and 0.003–114 μM for the larger library screen) or control were added to each well using a Kalypsys pintool equipped with a 1536-pin array. Plates were incubated at room temperature for 15 min, followed by initiation of the reactions via the addition of 1 μL of substrate (100 nM FORKF and 2 mM ATP final concentrations). Plates were transferred to a ViewLux high-throughput CCD imager and fluorescence was measured in kinetic mode using an excitation filter of 525 nm and emission filter of 598 nm.
(§2) Zʹ factor, a measure for assay quality control was calculated using the formula Z′ = 1−(3σS^++3σS^−)∕|μS^+−μS^−| as described previously. In this formula, 3σS^+ represents 3 standard deviations from the mean of positive signals while 3σS^− represents 3 standard deviations from the mean of negative signals. μS^+ and μS^− represent the mean of positive signals and negative signals respectively. Percent activity was derived using in-house software (http://tripod.nih.gov/curvefit/). Dose-response curves were classified as described previously.
(§3) A collection of approximately 350,000 compounds is available for screening which has been assembled from multiple sources to provide diverse chemical scaffolds with known purity, identity and solubility. To perform the high-throughput screen of these compounds, we needed to produce approximately 50 milligrams of recombinant WRN helicase fragment. To accomplish this, we cloned the helicase domain fragment into several plasmids for either insect cell or bacterial expression to optimize expression and yield. We selected expression plasmids for insect cell expression with either a GST or MBP tag (image A in S1 Fig) and purified the protein (image B in S1 Fig). The GST-WRN500-946 fragment isolated from insect cells was used in the high throughput screen with the conditions described in Fig 2C (20 nM GST-WRN500-946, 100 nM FORKF DNA substrate) and a summary of the results can be found on PubChem (National Center for Biotechnology Information. PubChem BioAssay Database; Assay Identifier (AID) = 651768, https://pubchem.ncbi.nlm.nih.gov/bioassay/651768). […] To verify the active compounds, approximately 600 hit molecules were retested in a confirmatory screen also found on PubChem (National Center for Biotechnology Information. PubChem AID = 720497, https://pubchem.ncbi.nlm.nih.gov/bioassay/720497). Of these, a little less than four hundred compounds were confirmed as active compounds.

[3] = biological target: T2, GST-WRN500-946 helicase domain fragment; test: Confirmatory fluorometric helicase screen, PubChem AID 720497; format: biochemical; conditions: 20 nM GST-WRN500-946, 100 nM FORKF, NA = Not Active, read-out: IC50 (μM) Assay ID 720497
Description: as §1, §2, §3

[4] = tested on: HeLa 1.2.11 cells; test: HeLa cell proliferation assay (WST-1); format: cell-based, human; conditions: 50 μM, 3-day time course
Description: WRN inhibitors were diluted in DMSO to a concentration 100-fold higher than their final concentrations. U2-OS cells in culture were counted, spun down and resuspended to 35,000 cells/mL in DMEM with 10% FBS and Pen/Strep antibiotic. For each cell condition, 15 μL of DMSO or inhibitor was added to 1.5 ml of U2-OS cells in DMEM or DMEM alone. One hundred μL of each cell condition was plated in triplicate on each of four 96-well plates representing days 0–3. Ten μL of WST-1 cell proliferation reagent (Roche) was added to the day 0 plate and readings were taken 2 hr later using a plate reader set to 450 nm. WST-1 cell proliferation reagent was added to plates on days 1–3 and readings were taken after 2 hr incubation. Percent cell proliferation was normalized to cells in the presence of DMSO with the background OD450 of DMEM with each drug subtracted out. […]
Fig 9 Effects of WRN helicase inhibitors on cancer cell proliferation. (A) Cell proliferation of HeLa 1.2.11 cells treated with 50 μM NCGC00029283-03, NCGC00063279-03, NCGC00357377-01 and NSC 617145 (positive control) or vehicle (DMSO) on Day 0 and Day 3 as measured using the WST-1 cell proliferation reagent. […]

[5] = tested on: Hematopoietic Protein Tyrosine Phosphatase (HePTP); set-up: method as in PMID 22070201; conditions: separate high-throughput screen; cited from earlier work
[6] = tested on: polymerases; set-up: method as in PubChem; conditions: review of PubChem data from previously-conducted screens; ref PubChem; cited from earlier work
[7] = tested on: BLM helicase fragment; set-up: method as in PubChem; conditions: review of PubChem data from previously-conducted screens; ref PubChem; cited from earlier work
[8] = radiometric assay, full-length WRN 1 nM, compound 0-100 μM, read-out: IC50
[9] = resynthesized or repurified compounds, full-length WRN, read-out: IC50 (μM): WRN

T2 sequence (Q14191 500-946): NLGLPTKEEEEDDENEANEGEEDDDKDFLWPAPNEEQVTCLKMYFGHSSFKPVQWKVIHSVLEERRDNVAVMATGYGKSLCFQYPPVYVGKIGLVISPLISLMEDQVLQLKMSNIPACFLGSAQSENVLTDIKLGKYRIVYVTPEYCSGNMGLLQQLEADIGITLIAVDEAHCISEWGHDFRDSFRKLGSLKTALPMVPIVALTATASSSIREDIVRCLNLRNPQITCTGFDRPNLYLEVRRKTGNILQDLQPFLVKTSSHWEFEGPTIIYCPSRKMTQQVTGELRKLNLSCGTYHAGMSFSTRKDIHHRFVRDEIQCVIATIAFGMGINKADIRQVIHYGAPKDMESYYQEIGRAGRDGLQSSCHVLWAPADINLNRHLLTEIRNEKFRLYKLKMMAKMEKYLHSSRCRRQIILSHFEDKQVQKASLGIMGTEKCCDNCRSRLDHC
T1 sequence (Q14191 whole entry): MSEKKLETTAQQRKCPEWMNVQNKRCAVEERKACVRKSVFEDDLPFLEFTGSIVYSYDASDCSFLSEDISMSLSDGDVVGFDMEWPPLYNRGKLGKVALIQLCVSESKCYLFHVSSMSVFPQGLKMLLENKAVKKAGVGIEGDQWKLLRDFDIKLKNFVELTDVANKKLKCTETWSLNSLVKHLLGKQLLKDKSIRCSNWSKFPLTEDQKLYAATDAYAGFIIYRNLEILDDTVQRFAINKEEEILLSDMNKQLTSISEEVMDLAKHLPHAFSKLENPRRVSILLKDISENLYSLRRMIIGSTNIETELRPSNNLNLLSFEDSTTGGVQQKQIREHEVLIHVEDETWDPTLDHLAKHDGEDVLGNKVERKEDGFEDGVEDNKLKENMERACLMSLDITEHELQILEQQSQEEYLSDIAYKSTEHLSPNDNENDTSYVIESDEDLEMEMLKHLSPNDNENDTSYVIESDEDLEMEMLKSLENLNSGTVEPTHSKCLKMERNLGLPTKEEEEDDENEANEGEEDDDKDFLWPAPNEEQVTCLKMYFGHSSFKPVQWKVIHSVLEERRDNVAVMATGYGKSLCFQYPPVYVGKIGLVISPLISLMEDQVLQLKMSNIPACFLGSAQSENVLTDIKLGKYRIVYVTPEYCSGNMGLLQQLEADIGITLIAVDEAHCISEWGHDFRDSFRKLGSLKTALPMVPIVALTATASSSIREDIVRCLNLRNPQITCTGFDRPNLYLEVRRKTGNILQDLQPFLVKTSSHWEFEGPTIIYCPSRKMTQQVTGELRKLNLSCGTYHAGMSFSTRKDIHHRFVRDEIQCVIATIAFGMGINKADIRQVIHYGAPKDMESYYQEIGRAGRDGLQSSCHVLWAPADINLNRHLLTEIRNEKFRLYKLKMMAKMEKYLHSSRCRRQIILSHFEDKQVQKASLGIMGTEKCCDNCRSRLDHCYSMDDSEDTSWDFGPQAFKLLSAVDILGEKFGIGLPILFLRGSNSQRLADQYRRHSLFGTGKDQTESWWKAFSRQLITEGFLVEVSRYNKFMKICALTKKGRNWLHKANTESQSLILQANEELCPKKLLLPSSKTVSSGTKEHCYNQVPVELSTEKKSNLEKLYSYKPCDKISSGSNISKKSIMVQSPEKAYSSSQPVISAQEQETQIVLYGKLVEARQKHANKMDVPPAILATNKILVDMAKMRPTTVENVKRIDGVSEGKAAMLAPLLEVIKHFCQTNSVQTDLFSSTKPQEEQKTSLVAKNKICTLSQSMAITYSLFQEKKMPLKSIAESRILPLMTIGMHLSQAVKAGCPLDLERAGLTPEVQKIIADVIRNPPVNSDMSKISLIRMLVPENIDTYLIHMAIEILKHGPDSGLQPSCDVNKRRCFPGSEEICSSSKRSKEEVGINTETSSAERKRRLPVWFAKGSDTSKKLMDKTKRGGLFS

In the case of Cc1ccc(-c2csc(NS(=O)(=O)c3cccc(F)c3)n2)o1 [MLS002251300-02], the remaining activity at 50 µM ([1]; full-length WRN 1 nM) is reported as 1%, the IC50 [1, 8] is reported as 4 µM and the IC50 [1, 9] is reported as 5 ± 1.4 µM. The IC50 [2] was 31.6 µM, the IC50 [3] was 24.1 µM and the “Effect on HeLa 1.2.11 cell proliferation” value [4] was “did not reduce cell proliferation”.
Compound COc1ccc2nc(O)c(-c3noc(-c4ccc(F)cc4)n3)cc2c1 [NCGC00029283-02] has a remaining activity at 50 µM ([1]; full-length WRN 1 nM) of 6%, an IC50 [1, 8] of 3 µM and an IC50 [1, 9] of 2.3 ± 0.6 µM. The IC50 [2] was 50 µM, the “Inhibition of HePTP” value [5] was “inhibited” and the “Activity against polymerases in high-throughput screens” value [6] was “some activity”. For the same compound, the “Activity against BLM helicase fragment in high-throughput screens” value [7] was “no activity”.
Compound COc1ccc2nc(O)c(-c3noc(-c4ccccc4)n3)cc2c1 [NCGC00063279-02] has a remaining activity at 50 µM ([1]; full-length WRN 1 nM) of 18%, an IC50 [1, 8] of 12 µM and an IC50 [1, 9] of 13 ± 3.6 µM. For the same compound, the IC50 [2] was 21.5 µM, the IC50 [3] was 21.5 µM and the “Inhibition of HePTP” value [5] was “inhibited”. The “Activity against polymerases in high-throughput screens” value [6] was “some activity” and the “Activity against BLM helicase fragment in high-throughput screens” value [7] was “no activity”.
